{"source": "patent US11453904B2", "about": "“Evaluation method for permeability of porous membrane, cell evaluation method, and drug evaluation method” (FUJIFILM CORPORATION, priority 2019, dated 2022)", "test_system": "endothelial cells 301 and the smooth muscle cells 302", "assay": "drug evaluation method: toxicity of a drug to cells cultured on the porous membrane of a microfluidic device, read by flow rate in the lower micro flow channel", "assay_type": "cell-based", "conditions": "cytochalasin 50 μg/ml contained in liquid A and liquid B; concluded from the increased flow-rate slope (decreased barrier property)", "from_the_text": "The drug evaluation method according to the present embodiment includes culturing cells on the surface of the porous membrane 30 of the microfluidic device 110 (a step S41). […] This makes it possible to form a structure that simulates the blood vessel (the artery) in the microfluidic device 110. It is noted that the cells to be evaluated may be cultured only on one surface of the porous membrane 30.\nThe drug evaluation method according to the present embodiment includes exposing cells cultured on the surface of the porous membrane 30 to a drug to be evaluated (a step S42). That is, a liquid containing a drug to be evaluated is supplied to each of the upper micro flow channel 18 and the lower micro flow channel 24.\nThe drug evaluation method according to the present embodiment includes acquiring the evaluation indicator of the permeability of the porous membrane 30 according to any one of the first to third embodiments described above as an indicator of toxicity of the drug to be evaluated to the cells. That is, the change that occurs in the liquid accommodated in the lower micro flow channel 24 is acquired as an indicator of toxicity of the drug to be evaluated to the cells, in a case where the liquid is supplied to the upper micro flow channel 18 while the supply pressure is being changed (a step S43). […]"}
{"substance": "cytochalasin", "values": [{"measurement": "toxicity to the endothelial cells 301 and the smooth muscle cells 302", "result": "has toxicity"}]}
